Reference: patent US8217031B2, “Heteroaryl derivatives” (Nippon Shinyaku Co., Ltd., priority 2007, dated 2012)
Where a name gives a salt, the structure may show the parent alone.

Legend:
[1] = target: T1, [3H]serotonin re-uptake in synaptosome (Rattus norvegicus, UniProt P31652); experiment: Inhibition of serotonin reuptake in rat cerebral cortex synaptosome; format: biochemical; conditions: Ki calculated from IC50 and Kd, read-out: Serotonin Reuptake Inhibiting Activity, Ki value
T1 construct: to give a synaptosome solution; from tissue; host or cells: rat cerebral cortex synaptosomes (male SD rats)
Method: (§1) Experiments for Inhibition of Serotonin Reuptake and Experiments for Inhibition of Norepinephrine Reuptake
(§2) Cerebral cortex of male SD rats (JAPAN SLC Inc.), over six weeks of age was excised and a 0.32M sucrose solution was added thereto in an amount of 10 mL per gram of the cerebral cortex followed by homogenizing. The homogenized solution was centrifuged, the supernatant thereof was further centrifuged at high speed and, to the resulting pellets, a PSS solution (pH 7.4; comprising 150 mM of NaCl, 4 mM of KCl, 1 mM of MgCl2, 2.5 mM of HEPES, 0.9 mg/mL of glucose, 0.176 mg/mL of ascorbic acid and 1 mM of pargylin) was added in an amount of 10 mL per gram of the pellets to give a synaptosome solution. A compound to be tested (100 μL) was added to 100 μL of the synaptosome solution and 700 μL of a 50 mM Tris buffer (pH 7.4; trihydroxylaminomethane) followed by subjecting to pre-incubation at 37° C. for 5 minutes. After the pre-incubation, 100 μL of [^3H]serotonin or [^3H]norepinephrine diluted to 10 nM and 20 nM, respectively, with a Tris buffer was added thereto followed by incubating at 37° C. for 5 minutes.
(§3) Synaptosome was recovered on a GF/B filter using a cell harvester and further washed three times using a washing solution (50 mM Tris buffer; pH 7.4; 4° C.). The filter was transferred to a vial, a scintillator was added thereto and the radiation activity was measured using a liquid scintillation counter.
(§4) Incidentally, the non-specific reaction was defined as the radiation activity under ice-cooling (4° C.) and the difference between the total radiation activity and the radiation activity under the non-specific reaction was adopted as the radiation activity specifically re-uptaken in the synaptosome. IC50 value was determined from the re-uptake inhibition rate in the presence of a test compound and, from IC50 value and the Kd value of [^3H]serotonin or [^3H]norepinephrine, Ki value of the test compound showing a re-uptake inhibiting activity of serotonin or norepinephrine, respectively, was calculated.

[2] = target: T2, [3H]norepinephrine re-uptake in synaptosome (Rattus norvegicus, UniProt Q9WTR4); experiment: Inhibition of norepinephrine reuptake in rat cerebral cortex synaptosome; format: biochemical; conditions: Ki calculated from IC50 and Kd, read-out: Norepinephrine Reuptake Inhibiting Activity, Ki value
T2 construct: to give a synaptosome solution; from tissue; host or cells: rat cerebral cortex synaptosomes (male SD rats)
Method: as §1, §2, §3, §4

rats under anesthesia = experiment: Measurement of urine leak point pressure in rats under anesthesia; format: in vivo, rat; conditions: intravenous administration of not more than 10 mg/kg; female rats, urethane anesthesia, thoracic spine cut at T8 to T9
Method: Measurement of Urine Leak Point Pressure in Rats Under Anesthesia Under anesthesia with urethane (1.2 g/kg; subcutaneous administration), the thoracic spine of female rats of 8 to 12 weeks of age (Japan SLC Inc.) was cut at the level of T8 to T9 so that the micturition reflex was made to disappear, then the abdomen was subjected to a median incision to expose the bladder and then a cannula was inserted into the bladder. An appropriate amount (ca. 0.4 mL) of a physiological saline was previously infused into the bladder, both sides of the bladder were gradually pressed with two cotton buds and the inner pressure of the bladder when the physiological saline solution leaked out from the urethral orifice was measured as a pressure upon leakage of urine. The measurement was repeated several times until the measured values became stable and, after that, the test compound was intravenously administered and a pharmacological effect of the test compound was evaluated.

T1 sequence (P31652 whole entry): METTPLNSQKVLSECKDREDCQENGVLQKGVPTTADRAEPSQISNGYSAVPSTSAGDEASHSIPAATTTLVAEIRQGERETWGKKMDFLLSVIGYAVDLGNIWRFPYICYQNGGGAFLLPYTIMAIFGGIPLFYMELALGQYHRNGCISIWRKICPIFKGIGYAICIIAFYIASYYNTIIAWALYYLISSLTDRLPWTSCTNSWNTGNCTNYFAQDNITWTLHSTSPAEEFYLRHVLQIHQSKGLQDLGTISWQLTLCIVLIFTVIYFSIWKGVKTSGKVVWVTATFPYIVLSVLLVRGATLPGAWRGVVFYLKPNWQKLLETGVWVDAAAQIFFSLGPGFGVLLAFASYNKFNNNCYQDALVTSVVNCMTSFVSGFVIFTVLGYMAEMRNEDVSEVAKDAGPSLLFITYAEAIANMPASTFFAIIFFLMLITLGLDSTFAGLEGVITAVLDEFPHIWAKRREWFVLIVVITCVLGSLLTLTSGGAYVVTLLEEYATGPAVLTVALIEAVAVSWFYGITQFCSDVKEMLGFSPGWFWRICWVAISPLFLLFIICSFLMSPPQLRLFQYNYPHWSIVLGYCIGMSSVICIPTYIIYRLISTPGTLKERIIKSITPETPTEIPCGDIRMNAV
T2 sequence (Q9WTR4 1-597): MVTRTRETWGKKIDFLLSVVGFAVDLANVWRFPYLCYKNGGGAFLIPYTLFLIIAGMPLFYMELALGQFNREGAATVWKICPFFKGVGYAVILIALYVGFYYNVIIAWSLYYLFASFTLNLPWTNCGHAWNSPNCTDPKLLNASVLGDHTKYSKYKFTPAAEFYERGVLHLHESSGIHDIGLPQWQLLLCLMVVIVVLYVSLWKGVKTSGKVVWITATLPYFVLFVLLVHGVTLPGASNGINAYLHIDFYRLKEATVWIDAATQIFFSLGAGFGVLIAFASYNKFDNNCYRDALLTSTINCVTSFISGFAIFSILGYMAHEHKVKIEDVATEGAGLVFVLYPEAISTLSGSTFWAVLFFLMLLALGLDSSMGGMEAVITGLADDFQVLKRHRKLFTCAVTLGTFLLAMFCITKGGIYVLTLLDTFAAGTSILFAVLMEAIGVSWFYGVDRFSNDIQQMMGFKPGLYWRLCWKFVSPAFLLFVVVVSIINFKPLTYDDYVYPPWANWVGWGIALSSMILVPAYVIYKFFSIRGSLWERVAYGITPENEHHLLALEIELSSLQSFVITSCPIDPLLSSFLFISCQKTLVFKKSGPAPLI

| Ki [1] [nM] | Ki [2] [nM] | SMILES | leak point pressure (pressure upon leakage of urine) (rats under anesthesia) |
| --- | --- | --- | --- |
| 1.7 | 5.6 | CN1CCC(Oc2cccc(Br)c2Cl)c2ccoc2C1.Cl (single isomer, unassigned; (+)) [Example 398, (+)-4-(3-Bromo-2-chlorophenyloxy)-7-methyl-5,6,7,8-tetrahydro-4H-furo[2,3-c]azepine hydrochloride] | raised the leak point pressure |
| 0.5 | 2.4 | CN1CCC(Oc2cccc(Cl)c2Cl)c2ccoc2C1.Cl (single isomer, unassigned; (+)) [Example 400, (+)-4-(2,3-Dichlorophenyloxy)-7-methyl-5,6,7,8-tetrahydro-4H-furo[2,3-c]azepine hydrochloride] | raised the leak point pressure |
| 1 | 3.2 | Cc1cc2c(o1)CN(C)CCC2Oc1cccc2ccccc12.Cl (single isomer, unassigned; (+)) [Example 401, (+)-2,7-Dimethyl-4-(naphthalen-1-yloxy)-5,6,7,8-tetrahydro-4H-furo[2,3-c]azepine hydrochloride] | raised the leak point pressure |
| 27.2 | 478 | CN1Cc2ccsc2C(Oc2cccc3ccccc23)C1 (stereo not shown) [Example 2, 5-Methyl-7-(naphthalen-1-yloxy)-4,5,6,7-tetrahydrothieno[3,2-c]pyridine] | – |
| – | – | CN1Cc2occc2C(Oc2ccc(Cl)c(Cl)c2)C1.Cl (stereo not shown) [Example 21, 4-(3,4-Dichlorophenyloxy)-6-methyl-4,5,6,7-tetrahydrofuro[2,3-c]pyridine hydrochloride] | raised the leak point pressure |
| 9.5 | 279 | CCN1Cc2sccc2C(Oc2ccc(Cl)c(Cl)c2)C1 (stereo not shown) [Example 24, 4-(3,4-Dichlorophenyloxy)-6-ethyl-4,5,6,7-tetrahydrothieno[2,3-c]pyridine hydrochloride] | – |
| 14.1 | 244 | Cc1cc2c(o1)CN(C)CC2Oc1ccc(Cl)c(Cl)c1 (stereo not shown) [Example 57, 4-(3,4-Dichlorophenyloxy)-2,6-dimethyl-4,5,6,7-tetrahydrofuro[2,3-c]pyridine hydrochloride] | – |
| 3.9 | 484 | CN1Cc2occc2C(Oc2ccc(Br)c(Cl)c2)C1 (stereo not shown) [Example 66, 4-(4-Bromo-3-chlorophenyloxy)-6-methyl-4,5,6,7-tetrahydrofuro[2,3-c]pyridine hydrochloride] | – |
| 7.9 | 207 | Cc1cc2c(o1)CN(C)CC2Oc1ccc(Cl)c2ccccc12 (stereo not shown) [Example 84, 4-(4-Chloronaphthalene-1-yloxy)-2,6-dimethyl-4,5,6,7-tetrahydrofuro[2,3-c]pyridine hydrochloride] | – |
| 8.6 | 455 | Cc1cc2c(s1)CN(C)CC2Oc1ccc(Br)c(Br)c1 (stereo not shown) [Example 98, 4-(3,4-Dibromophenyloxy)-2,6-dimethyl-4,5,6,7-tetrahydrothieno[2,3-c]pyridine hydrochloride] | – |
| 3.4 | 4 | Cc1cc2c(s1)CN(C)CCC2Oc1cccc2ccccc12.Cl (stereo not shown) [Example 102, 2,7-Dimethyl-4-(naphthalen-1-yloxy)-5,6,7,8-tetrahydro-4H-thieno[2,3-c]azepine hydrochloride] | raised the leak point pressure |
| 1.7 | 64.4 | CN1CCC(Oc2ccc(Cl)c(Cl)c2)c2sccc2C1 (stereo not shown) [Example 108, 8-(3,4-Dichlorophenyloxy)-5-methyl-5,6,7,8-tetrahydro-4H-thieno[3,2-c]azepine hydrochloride] | – |
| 8.9 | 66.2 | CN1CCc2sccc2C(Oc2cccc3ccccc23)C1 (stereo not shown) [Example 109, 6-Methyl-4-(naphthalen-1-yloxy)-5,6,7,8-tetrahydro-4H-thieno[2,3-d]azepine hydrochloride] | – |
| 1.2 | 70.7 | CN1CCC(Oc2ccc(Cl)c3ccccc23)c2sccc2C1 (stereo not shown) [Example 115, 8-(4-Chloronaphthalen-1-yloxy)-5-methyl-5,6,7,8-tetrahydro-4H-thieno[3,2-c]azepine hydrochloride] | – |
| – | – | Cc1cc2c(s1)CN(C)CCC2Oc1ccc(C(F)(F)F)cc1.Cl (stereo not shown) [Example 133, 2,7-dimethyl-4-[4-(trifluoromethyl)phenyloxy]-5,6,7,8-tetrahydro-4H-thieno[2,3-c]azepine hydrochloride] | raised the leak point pressure |
| 5.4 | – | Cc1cc2c(s1)CN(C)CCC2Oc1ccc(Br)c(Br)c1 (stereo not shown) [Example 135, 4-(3,4-Dibromophenyloxy)-2,7-dimethyl-5,6,7,8-tetrahydro-4H-thieno[2,3-c]azepine hydrochloride] | – |
| 4.1 | 8.4 | Cc1cc2c(o1)CN(C)CCC2Oc1cccc2ccccc12 (stereo not shown) [Example 140, 2,7-Dimethyl-4-(naphthalen-1-yloxy)-5,6,7,8-tetrahydro-4H-furo[2,3-c]azepine] | – |
| 2.1 | 2 | Cc1cc2c(s1)CN(C)CCC2Oc1cccc(Cl)c1Cl (stereo not shown) [Example 148, 4-(2,3-Dichlorophenyloxy)-2,7-dimethyl-5,6,7,8-tetrahydro-4H-thieno[2,3-c]azepine hydrochloride] | – |
| 1.8 | 1.7 | CN1CCC(Oc2cccc(Cl)c2Cl)c2ccsc2C1 (stereo not shown) [Example 149, 4-(2,3-Dichlorophenyloxy)-7-methyl-5,6,7,8-tetrahydro-4H-thieno[2,3-c]azepine hydrochloride] | – |
| 6.8 | 57.5 | CN1CCC(Oc2cccc3ccccc23)c2occc2C1 (stereo not shown) [Example 157, 5-Methyl-8-(naphthalen-1-yloxy)-5,6,7,8-tetrahydro-4H-furo[3,2-c]azepine] | – |
| 3.8 | 12 | Cc1cc2c(o1)CN(C)CCC2Oc1cccc(Cl)c1Cl (stereo not shown) [Example 163, 4-(2,3-Dichlorophenyloxy)-2,7-dimethyl-5,6,7,8-tetrahydro-4H-furo[2,3-c]azepine] | – |
| 6.6 | 23.8 | CN1CCC(Oc2cccc(Cl)c2Cl)c2occc2C1 (stereo not shown) [Example 168, 8-(2,3-Dichlorophenyloxy)-5-methyl-5,6,7,8-tetrahydro-4H-furo[3,2-c]azepine] | – |
| 3.1 | 27.5 | CN1CCC(Oc2cccc(Br)c2Cl)c2ccoc2C1 (stereo not shown) [Example 177, 4-(3-Bromo-2-chlorophenyloxy)-7-methyl-5,6,7,8-tetrahydro-4H-furo[2,3-c]azepine] | – |
| 1 | 24.4 | CN1CCC(Oc2cccc3ccccc23)c2ccoc2C1 (stereo not shown) [Example 179, 7-Methyl-4-(naphthalen-1-yloxy)-5,6,7,8-tetrahydro-4H-furo[2,3-c]azepine hydrochloride] | – |
| 1.7 | 21.5 | Cc1cc2c(o1)CN(C)CCC2Oc1cccc(Br)c1Cl (stereo not shown) [Example 200, 4-(3-Bromo-2-chlorophenyloxy)-2,7-dimethyl-5,6,7,8-tetrahydro-4H-furo[2,3-c]azepine] | – |
| 0.9 | 4.1 | CN1CCC(Oc2cccc(Cl)c2Cl)c2ccoc2C1 (stereo not shown) [Example 213, 4-(2,3-Dichlorophenyloxy)-7-methyl-5,6,7,8-tetrahydro-4H-furo[2,3-c]azepine hydrochloride] | – |
| 18.3 | 11.7 | CN1CCC(Oc2ccc(C(N)=O)cc2Cl)c2ccoc2C1 (stereo not shown) [Example 225, 4-(2-Chloro-4-carbamoylphenyloxy)-7-methyl-5,6,7,8-tetrahydro-4H-furo[2,3-c]azepine hydrochloride] | – |
